According to publication PMC8272148, “Antioxidant Serine-(NSAID) Hybrids with Anti-Inflammatory and Hypolipidemic Potency” (Molecules, 2021):
Marks after values point to notes of the source that are not given here.

Experiments:
[1] = system: Triton WR1339 (tyloxapol)-induced hyperlipidemia; test: Triton WR1339 (tyloxapol)-induced hyperlipidemia in rats; assay type: in vivo, Wistar rats; settings: 150 μmol/kg i.p., rat plasma, 24 h, tyloxapol 200 mg/kg i.p.
Protocol: The examined compounds (0.15 mmol/kg) were administered i.p. one hour later. Blood was taken from the aorta after 24 h, for the determination of plasma total cholesterol, LDL cholesterol and triglyceride concentration, using commercial kits.

[2] = biological target: T1, soybean lipoxygenase 1-B (Glycine max, UniProt P08170); test: In vitro inhibition of soybean lipoxygenase; assay type: biochemical; settings: linoleic acid (100 μM) as substrate, after 7 min of incubation
T1 sequence (P08170 1-839): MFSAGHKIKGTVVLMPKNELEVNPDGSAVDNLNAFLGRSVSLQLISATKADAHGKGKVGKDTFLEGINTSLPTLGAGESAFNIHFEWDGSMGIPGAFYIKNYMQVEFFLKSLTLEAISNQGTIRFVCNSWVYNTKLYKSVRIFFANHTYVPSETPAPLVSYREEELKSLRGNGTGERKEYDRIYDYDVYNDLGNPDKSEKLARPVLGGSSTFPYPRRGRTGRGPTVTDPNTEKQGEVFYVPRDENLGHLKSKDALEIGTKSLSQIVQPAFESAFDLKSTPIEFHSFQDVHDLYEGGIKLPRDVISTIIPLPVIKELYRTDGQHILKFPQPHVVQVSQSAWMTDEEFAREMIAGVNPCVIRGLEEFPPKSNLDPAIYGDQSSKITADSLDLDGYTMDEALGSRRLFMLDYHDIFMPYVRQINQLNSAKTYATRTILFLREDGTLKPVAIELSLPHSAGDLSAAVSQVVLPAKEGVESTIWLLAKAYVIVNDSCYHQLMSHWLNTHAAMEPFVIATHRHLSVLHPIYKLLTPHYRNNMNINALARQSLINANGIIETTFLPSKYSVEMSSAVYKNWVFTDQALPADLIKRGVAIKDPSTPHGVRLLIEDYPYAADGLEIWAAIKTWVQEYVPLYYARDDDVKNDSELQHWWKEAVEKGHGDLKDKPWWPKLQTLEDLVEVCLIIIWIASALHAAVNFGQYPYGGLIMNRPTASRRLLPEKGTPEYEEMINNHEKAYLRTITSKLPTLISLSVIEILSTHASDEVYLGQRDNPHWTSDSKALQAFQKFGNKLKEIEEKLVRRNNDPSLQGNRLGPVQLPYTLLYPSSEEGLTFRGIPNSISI
Protocol: The reaction mixture contained the test compounds, dissolved in absolute ethanol (0.1 mL) at various concentrations, or the solvent (control, 0.1 mL), soybean lipoxygenase dissolved in 0.9% NaCl solution (250 u/mL, 0.2 mL) and sodium linoleate (100 μM) in Tris–HCl buffer, pH 9.0 (2.7 mL). The reaction was followed for 7 min at 28 °C, recording the absorbance of a conjugated diene structure at 234 nm, due to the formation of 13-hydroperoxy-linoleic acid. […] For the estimation of the type of inhibition, the above experiments were repeated, using sodium linoleate at 1 mM, which is higher than the saturating substrate concentration.

[3] = system: rat hepatic microsomal membrane lipid peroxidation; test: Inhibition of rat hepatic microsomal membrane lipid peroxidation (ferrous ascorbate induced, TBA reactive material); assay type: biochemical; settings: 100 μM compound, after 45 min of incubation
Protocol: The peroxidation of the heat-inactivated rat hepatic microsomal fraction was induced by ferrous ascorbate. The studied compounds, in dimethylsulfoxide, were added at concentrations of 1 μM–1 mM. Aliquots were taken from the incubation mixture (37 °C) for 45 min. Lipid peroxidation was assessed spectrophotometrically (535/600 nm) as a 2-thiobarbituric acid reactive material. The incubation mixture and solvents were found not to interfere with the assay.

[4] = Interaction with the stable radical DPPH; settings: DPPH 200 μM, after 30 min
Protocol: Compounds, dissolved in absolute ethanol, at concentrations of 25–200 μM, were added to an equal volume of an ethanolic solution of DPPH (final concentration 200 μM) at room temperature (22 ± 2 °C). Absorbance (517 nm) was recorded after 30 min [26]. For the calculation of percent interaction, the residual absorbance of DPPH Ai (at a fixed concentration) after its interaction with the examined compounds (at various concentrations) was compared with the control absorbance Ao, without the addition of compounds, following the equation: (1) Percent interaction=100−(Ai/Ao×100)

[5] = system: carrageenan-induced rat paw edema; test: Carrageenan-induced rat paw edema; assay type: in vivo, Wistar rats; settings: ip, 0.15 mmol/kg i.p., 3.5 h after carrageenan, vs controls, read-out: % Edema Reduction
Protocol: An amount of 0.1 mL of an aqueous carrageenan solution (1% w/v) was injected into the hind paw of adult Wistar rats (6 rats were used for each compound). The tested compounds (in water with a few drops of Tween 80) were administered i.p. (0.15 mmol/kg) 5 min before the carrageenan administration. The produced edema, after 3.5 h, was estimated as paw weight increase.

SMILES: CCOC(=O)C(COC(=O)C(C)c1cccc(C(=O)c2ccccc2)c1)NC(=O)/C=C/c1cc(C(C)(C)C)c(O)c(C(C)(C)C)c1 (stereo not shown) [Compound 12, (E)-ethyl 3-((2-(3-benzoylphenyl)propanoyl)oxy)-2-(3-(3,5-di-tert-butyl-4-hydroxyphenyl)acrylamido)propanoate]
- % Reduction LDL-C (LDL cholesterol) [1]: 56.2 * %
- % Reduction TC (total cholesterol) [1]: 53.4 ** %
- % Reduction TG (triglycerides) [1]: 33.2 * %
- IC50 [2]: 90 µM
- Inhibition of Lipid Peroxidation, percent at 100 μM [3]: 20%/100 μM
- Percent Interaction with DPPH ([4]; compound 25 μM): 20.0%
- Percent Interaction with DPPH ([4]; compound 50 μM): 24.7%
- Percent Interaction with DPPH ([4]; compound 100 μM): 53.8%
- Percent Interaction with DPPH ([4]; compound 200 μM): 94.0%
- inhibition in vivo at 150 µmol/kg [5]: 59%
